These results are taken from patent US20210386365A1, “BIOMARKERS OF NEUROPATHIC PAIN” (Children`s Medical Center Corporation, priority 2018, published 2021).

The data set concerns SNI mice. The data set is described as follows: EEG/EMG sleep analysis (NREMS fragmentation by brief awakenings) in spared nerve injury mice treated with analgesic drugs. Format: in vivo. The conditions noted are these: for sleep fragmentation: mice with nerve injury, efficacy at doses active in patients with neuropathic pain. The source says:
EEG/EMG implantation surgery: C57BL6/j mice were anesthetized with isoflurane gas (3% induction/2% maintenance) and placed in a stereotaxic apparatus (David Kopf Instruments, Tujunga, Calif.). […] Two flexible EMG electrodes(multistranded stainless steel wire; AS131, Cooner Wire, Chatsworth, Calif.) were inserted into the neck extensor muscles. All electrodes were previously soldered to a six-pin connector (MMX852-10-006-10-001000; Mill-Maz Mfg. Corp., Oyster Bay, N.Y.) and covered with epoxy glue to ensure insulation. The headmount was affixed to the animal's skull with dental acrylic cement, and the scalp wound was sutured closed behind the headmount. Mice were given meloxicam (5 mg/kg, i.p.) before they regained consciousness and then daily for 3 days and were housed singly after surgery.
EEG/EMG acquisition: Ten to fifteen days after EEG/EMG implantation, mice were transferred to individual sleep-recording cages (transparent cylindrical cage, 12″ diameter and 12″ height) in a sound-attenuated chamber with a 12:12 h light-dark cycle, ad libitum food and water, and connected to a tethered pre-amplifier (100× gain, 0.5 Hz high-pass filter for EEG, 10 Hz high-pass filter for EMG; Pinnacle Technology Inc., Lawrence, Kans., USA). The other end of the tether was plugged into a low-torque commutator (8204, Pinnacle Technology Inc., Lawrence, Kans., USA) for freely moving recordings. A data conditioning and acquisition system (DCAS, 8206) performed secondary amplification and filtering (low-pass filter: 100 Hz for EEG, 200 Hz for EMG). Mice habituated for 3-5 days to the recording setup before their baseline sleep-wake and sensory behaviors were measured.
Spared nerve injury (SNI): surgery was performed under 3% induction/2% maintenance with isoflurane on adult mice (8 to 12 weeks old). The tibial and common peroneal branches of the sciatic nerve were tightly ligated with a 5.0 silk suture and transected distally, while the sural nerve was left intact (Decosterd and Woolf, 2000). After injury, incision was sutured and mice were allowed to recover on heated pads before being returned to their homecage. The surgeon who performed the SNI was blinded to the genotype. This model causes permanent pain hypersensitivity. Sciatic nerve crush (SNcrush): surgery was performed under 3% induction/2% maintenance with isoflurane on adult mice (8 to 12 weeks old). The left sciatic nerve was exposed just below the sciatic notch under sterile conditions and then crushed using Dumont #5/45 forceps for 30 seconds under a dissection microscope. After the nerve injury, the incision wound was sutured and animals were allowed to recover on heated pads before being returned to their home cage. The surgeon who performed the SNcrush was blinded to the treatment. This model causes transient hypersensitivity before return to normal sensitivity. Sham control: surgery was performed under 3% induction/2% maintenance with isoflurane on adult mice (8 to 12 weeks old). The left sciatic nerve was exposed but left intact and the animals were allowed to recover on heated pads before being returned to their home cage.
EEG and EMG signals were digitized at a sampling rate of 400 Hz through Sirenia® Acquisition software (Pinnacle Technology Inc, Lawrence, Kans., USA) and converted to European Data Format (.EDF). Using SleepSign® for Animal (Kissei Comtec Co., Japan) software, EEG and EMG signals were digitally filtered (EEG, 0.5-100 Hz; EMG, 10-200 Hz) and scored semi-automatically using 10-s epochs, as wake, NREMS or REMS. This preliminary scoring was visually inspected by a trained experimenter, who was blinded to the experimental conditions, and corrected when appropriate. To evaluate sleep fragmentation, transient waking events occurring during NREMS were evaluated: these brief awakenings (BAs) were defined by a high-frequency low-amplitude EEG associated with an increase of EMG tone ranging from 2-15 s (Franken et al., 1991; Tobler et al., 1997). […]

In the case of `NC(=O)N1c2ccccc2C=Cc2ccccc21` [carbamazepine], the sleep fragmentation result is “dose-dependently normalize sleep fragmentation”. Further, under “SNI mice, carbamazepine 5 mg/kg versus saline, FIGS. 8E-8G”, the “average length of NREM” value is “restored the average length of NREM”.
Take `NCC1(CC(=O)O)CCCCC1` [gabapentin]: the sleep fragmentation entry is “dose-dependently normalize sleep fragmentation”. Moreover, the “total amount of sleep” value (SNI mice with and without GBP treatment, FIG. 8C) was “not affected”. For the same compound, the “latency on sleep (time from full wakefulness to sleep)” value (SNI mice with and without GBP treatment, FIG. 8D) is “slight increase”. In addition, the “time after administration at which effects on NREMS length were the strongest” value (SNI mice, FIG. 8B) lay within 0 to 2 h. In addition, the sedation result (SNI mice, gabapentin treatment) is recorded as “without causing sedation”. For the setting “SNI mice, gabapentin treatment, FIG. 8A”, the “average length of NREMS” value is recorded as “restored the average length of NREMS”.
